Data published in PMC7448123, “Ru(II) Complexes Bearing O, O-Chelated Ligands Induced Apoptosis in A549 Cells through the Mitochondrial Apoptotic Pathway” (Bioinorganic Chemistry and Applications, 2020).

Legend:
MCF-7 (breast cancer) = experiment: MTT cytotoxicity assay, MCF-7; assay type: cell-based, human
Description: (§2) All cell lines were cultured in Roswell Park Memorial Institute 1640 culture media supplemented with 10% fetal bovine serum and incubated at 37°C in a 5% CO2 incubator. The IC50 values in Table 1 were measured by MTT assay according to our previous report [16].
(§3) The cell viability was obtained by the MTT assay.

[1] = tested on: HeLa (human cervical cancer); experiment: MTT cytotoxicity assay, HeLa; assay type: cell-based; settings: 48 h
Description: as §2, §3

[2] = tested on: A549 (human lung carcinoma); experiment: MTT cytotoxicity assay, A549; assay type: cell-based; settings: 48 h, MTT
Description: as §2, §3

[3] = tested on: HepG2 (human hepatocellular carcinoma); experiment: MTT cytotoxicity assay, HepG2; assay type: cell-based
Description: as §2, §3

A549 cells [4] = experiment: Annexin V-FITC/PI apoptosis flow cytometry; assay type: cell-based, human; settings: 24 h
Description: (§1) First, A549 cells were incubated in six-well plates for 12 h and then exposed to Ru(II) complexes for 24 h. After incubation, cell nuclei were stained with Hoechst 33342 (5 μg/mL) for 10 min, washed twice with PBS, and then photographed using an inverted fluorescence microscope. […] The suspension was stained with 5 μL Annexin V-FITC and 10 μL PI at room temperature for 15 min and then analyzed using the flow cytometer.

zebrafish embryos = experiment: In vivo toxicity on developing zebrafish embryos
Description: Zebrafish embryos were provided by the Zebrafish Platform of Affiliated hospital of Guangdong Medical University. […] An inverted microscope was used to observe the hatching and growth of the zebrafish embryos with and without Ru-1 every 24 h. The ethical protocols used for the in vivo zebrafish embryo study were performed in line with the ethics regulations of Guangdong Medical University.

A549 cells [5] = experiment: Western blotting of apoptosis, Bcl-2 family and DNA damage proteins; assay type: cell-based, human
Description: Glyceraldehyde-3-phosphate dehydrogenase (GAPDH) was used as an internal control. The protein concentrations were determined by BCA Protein Assay Kit.

A549 cells [6] = experiment: Comet assay (single-cell gel electrophoresis), DNA damage; assay type: cell-based, human; settings: 10 μM, 12 h
Description: Single-cell gel electrophoresis was performed to detect DNA damage, as previously described. Comet assay was performed according to the manufacturer's instructions. DNA was stained with SYBR Green I (Trevigen) and imaged under an inverted fluorescence microscope.
Excessive intracellular ROS can activate DNA damaged sensor proteins and lead to DNA damage, an essential hallmark of cell apoptosis. Indeed, the DNA damage effect has been observed in many previously developed Ru(II) complexes. To determine whether or not these complexes can induce DNA damage, the single-cell gel electrophoresis assay (comet assay) was conducted in our study. […] Also, the comet assay (DNA fragments appearance) could serve as a mark for apoptosis assessment. As shown in Figure 6(a), in the control group, there was no comet-like cell observed. […] Increasing the concentration to 20 μM recorded markedly higher levels of comet tails, showing that more DNA fragmentation has occurred.

[7] = tested on: BEAS-2B (immortalized human bronchial epithelial cells); experiment: MTT cytotoxicity assay, normal BEAS-2B; assay type: cell-based; settings: 48 h
Description: as §2, §3

A549 cells [8] = experiment: Intracellular ROS level, DCFH-DA flow cytometry; assay type: cell-based, human; settings: 20 μM, 12 h
Description: The mitochondrial membrane potential (MMP) of A549 cells was analyzed by using an inverted fluorescence microscope and flow cytometry. […] For microscope observation, the collected cells were incubated in complete medium containing JC-1 (10 μg/mL) for 30 min and washed with PBS twice and then imaged by an inverted fluorescence microscope (Nikon, Japan). For flow cytometry analysis, the cells were trypsinized and washed twice with PBS and then incubated in 500 μL PBS containing JC-1 (10 μg/mL) for 30 min at 37°C. The cells were analyzed by flow cytometer immediately. The intracellular ROS level of A549 cells was detected after DCFH-DA stain, as illustrated in our new publication.
Increasing intracellular ROS levels can trigger cell apoptosis. […] To explore the roles of ROS in Ru(II) complex-induced cell apoptosis, we detected intracellular ROS levels by using an inverted fluorescence microscope and flow cytometry after staining A549 cells with DCFH-DA fluorescent dye.

[9] = Stability towards GSH and BSA by UV-Vis absorption; assay type: physicochemical; settings: 12 h, 37 °C, PBS buffer (pH 7.4)
Description: Investigating the hydrolysis in the presence of biorelevant molecules is very important to assess the chemical stability and biological activities of these title complexes.
Figure S8. UV/vis absorption of Ru-1 in the absence and presence of (A) GSH or (B) BSA. All spectra were acquired 12 h after GSH or BSA addition at 37 °C in PBS buffer (pH 7.4).
Figure S9. UV/vis absorption of Ru-2 in the absence and presence of (A) GSH or (B) BSA. All spectra were acquired 12 h after GSH or BSA addition at 37 °C in PBS buffer (pH 7.4).

A549 cells [10] = experiment: Hoechst 33342 nuclear staining; assay type: cell-based, human; settings: 20 μΜ, 24 h
Description: as §1

A549 cells [11] = experiment: Cellular uptake and subcellular distribution by ICP-MS; assay type: cell-based, human
Description: A549 cells were seeded into six-well plates (5.0 × 10^5 cells per well) and grown overnight at 37°C in a 5% CO2 incubator. The cells were incubated with the different concentrations (5, 10, 15, and 20 μM) of Ru(II) complexes for different time intervals (1, 3, and 6 h). After the incubation, the cells were harvested and washed twice with PBS. Cell Mitochondria Isolation Kit was used to extract the nuclear, mitochondrial, and cytoplasmic fractions of the A549 cells. The pellets were digested with 3 mL concentrated nitric acid and 1 mL perhydrol for 24 h and then diluted to 5 mL with ultrapure water. Finally, ICP-MS was used to determine the amount of Ru(II) complexes uptaken by A549 cells.
It is generally acknowledged that the cellular uptake feature of transition metal-based compounds is an essential factor for their biological activities. As repeatedly reported by previous ruthenium complex-related studies, the more cellular uptake results in higher cytotoxicity. The cellular ruthenium concentration was determined by using ICP-MS after 1, 3, and 6 h of exposure to 5, 10, 15, and 20 μM Ru(II) complexes (Figure 2), respectively, and the results were reported as ng of ruthenium per 10^6 cell number.

[12] = Solution stability by UV-Vis absorption in water and CH3CN; assay type: physicochemical; settings: 298 K, over 24 h, 20 μM
Description: (N-N = dip, dmp) and salicylic acid in the presence of sodium hydroxide. The crude product was purified by chromatography over alumina. The obtained compounds were analyzed by elemental analysis, ESI-MS, ^1H NMR, FTIR, and UV-Vis absorption spectroscopy, and the results were shown in Figures S1–S7 in Supplementary Materials. […] In the UV-visible spectral regions, both complexes consist of two well-resolved absorption bands. In the visible region, these two complexes present a strong MLCT transition at 500–600 nm attributed to the overlap Ru(dπ)-dip or dmp (π^∗) and Ru(dπ)-SA (π^∗). The intense band occurring between 250 nm and 300 nm is attributed to an intra-ligand (IL) π-π^∗ transition by comparing with the spectra of other Ru(II)-polypyridyl complexes.

Work on Cc1ccc2ccc3ccc(C)nc3c2n1.Cc1ccc2ccc3ccc(C)nc3c2n1.[Cl-].[Cl-].[Ru+2] [Ru(dmp)2Cl2, cis-[Ru(dmp)2Cl2]] yielded an IC50 (MCF-7 (breast cancer); 48 h) of over 200 µM, an IC50 [1] of over 200 µM and an IC50 [2] of over 200 µM. The IC50 ([3]; 48 h) was 169 ± 6.2 µM.

For O=C1[O][Ru][O]c2ccccc21.c1ccc(-c2ccnc3c2ccc2c(-c4ccccc4)ccnc23)cc1.c1ccc(-c2ccnc3c2ccc2c(-c4ccccc4)ccnc23)cc1 [Ru-1, [Ru(dip)2(SA)]], the “early apoptotic cells (I4)” value (A549 cells [4]; 5 μM) was 14.71%, the “late apoptotic/necrotic cells (I2)” value (A549 cells [4]; 5 μM) was 7.13% and the “early apoptotic cells (I4)” value (A549 cells [4]; 10 μM) was 16.27%. The “early apoptotic cells (I4)” value (A549 cells [4]; 20 μM) was 21.57%, the “late apoptotic/necrotic cells (I2)” value (A549 cells [4]; 20 μM) was 20.78% and the “cumulative hatch rate and lethality rate” value (zebrafish embryos; 12.5 μM) was “no difference compared with those of the control group”. The lethality rate (zebrafish embryos; 100 μM, after 96 h) was “lower than 35%”, the cumulative hatch (zebrafish embryos; 200 μM, after 72 h treatment) was “lower than 70%” and the unhealthy features observed (zebrafish embryos; 200 μM, at 96 h) was “pericardial cysts and spine curvature”. The side effects (zebrafish embryos; 12.5 to 50 μM) was “no apparent side effects”, the development of embryos (zebrafish embryos; concentration lower than 50 μM, after 96 h) was “all zebrafish embryos can develop into juvenile zebrafish” and the malformation (zebrafish embryos; concentration lower than 100 μM, at 96 h) was “no malformation was observed”. For the same molecule, the “cytochrome c expression in cytosol” value (A549 cells [5]) was “apparent enhancement”, the “expression levels of antiapoptotic proteins Bcl-2 and Bcl-xl” value (A549 cells [5]) was “downregulated” and the “expression of proapoptotic protein Bax and Bad” value (A549 cells [5]) was “increased expression”. The “phosphorylation levels of Chk1 and Chk2” value (A549 cells [5]) was “increased”, the “expression of cleaved-PARP, cleaved caspase-3/8/9” value (A549 cells [5]; 24 h, concentration-dependent) was “increased” and the “expression of total caspase-3/8” value (A549 cells [5]; 24 h, concentration-dependent) was “decreased”. The “phosphorylation levels of ATM, ATR, histone, and p53” value (A549 cells [5]; concentration-dependent) was “upregulation”, the “DNA fragmentation, comet assay” value (A549 cells [6]) was “well-formed comet tails” and the IC50 (MCF-7 (breast cancer); 48 h) was 29.5 ± 2.2 µM. The IC50 [7] was 54.3 ± 3.4 µM, the “MFI higher than the control group” value (A549 cells [8]) was “about 3.0 fold” and the IC50 [1] was 20.1 ± 1.3 µM. The IC50 [2] was 11.3 ± 1.1 µM, the “change in characteristic absorption with excessive GSH or BSA (stability)” value [9] was “no significant change” and the “apoptotic features, Hoechst 33342 staining” value (A549 cells [10]) was “chromatin condensation, nuclear fragmentation, and plasma membrane blebbing”. For the same molecule, the “Intracellular content of Ru” value (A549 cells [11]; 5 μM, 1 h) was 120.3 ± 9.5 ng Ru/10^6 A549 cell number, the “Intracellular content of Ru” value (A549 cells [11]; 5 μM, 3 h) was 168.5±13.0 ng Ru/10^6 A549 cell number and the “Intracellular content of Ru” value (A549 cells [11]; 5 μM, 6 h) was 241.2±10.6 ng Ru/10^6 A549 cell number. The “Intracellular content of Ru” value (A549 cells [11]; 10 μM, 1 h) was 146.3±13.7 ng Ru/10^6 A549 cell number, the “Intracellular content of Ru” value (A549 cells [11]; 10 μM, 3 h) was 216.8±16.9 ng Ru/10^6 A549 cell number and the “Intracellular content of Ru” value (A549 cells [11]; 10 μM, 6 h) was 299.4±1.2 ng Ru/10^6 A549 cell number. The “Intracellular content of Ru” value (A549 cells [11]; 15 μM, 1 h) was 178.5±15.4 ng Ru/10^6 A549 cell number, the “Intracellular content of Ru” value (A549 cells [11]; 15 μM, 3 h) was 246.7±25.4 ng Ru/10^6 A549 cell number and the “Intracellular content of Ru” value (A549 cells [11]; 15 μM, 6 h) was 343.8±17.0 ng Ru/10^6 A549 cell number. The “Intracellular content of Ru” value (A549 cells [11]; 20 μM, 1 h) was 215.9±19.4 ng Ru/10^6 A549 cell number, the “Intracellular content of Ru” value (A549 cells [11]; 20 μM, 3 h) was 312.4±21.5 ng Ru/10^6 A549 cell number and the “Intracellular content of Ru” value (A549 cells [11]; 20 μM, 6 h) was 432.5 ± 12.4 ng Ru/10^6 A549 cell number. The Subcellular distribution (A549 cells [11]; 20 μM, nuclear, mitochondrial and cytoplasmic fractions) was “mostly accumulated in the cell nucleus, followed by mitochondria”, the “change in UV-Vis absorption spectra (solution stability)” value [12] was “no significant change” and the IC50 ([3]; 48 h) was 15.4 ± 1 µM.

[Cl-].[Cl-].[Ru+2].c1ccc(-c2ccnc3c2ccc2c(-c4ccccc4)ccnc23)cc1.c1ccc(-c2ccnc3c2ccc2c(-c4ccccc4)ccnc23)cc1 [Ru(dip)2Cl2, cis-[Ru(dip)2Cl2]] gave an IC50 (MCF-7 (breast cancer); 48 h) of 135 ± 7.9 µM, an IC50 [1] of 116 ± 6.8 µM and an IC50 [2] of 138 ± 6.7 µM. It also gave an IC50 ([3]; 48 h) of 108 ± 5.4 µM.

In the case of O=C(O)c1ccccc1O [SA, salicylic acid], the IC50 (MCF-7 (breast cancer); Homo sapiens, MCF7, 48 h) is reported as over 200 µM, the IC50 ([1]; Homo sapiens, HeLa) is reported as over 200 µM and the IC50 ([2]; Homo sapiens, A549) is reported as over 200 µM. It also gave an IC50 ([3]; Homo sapiens, HepG2, 48 h) of over 200 µM.
